Source: patent publication US20240360107A1, “AN EIF4A INHIBITOR WITH A NOVEL MECHANISM OF ACTION” (ARIZONA BOARD OF REGENTS ON BEHALF OF THE UNIVERSITY OF …, priority 2021, published 2024)
“Also recorded” adds a separate entry of the source.

Assays:
[1] = test system: BJAB Burkitt lymphoma cells; experiment: CellTiter-Glo Luminescent Cell Viability assay; assay type: cell-based; details: 72 h; for effect on BJAB cell viability: top concentration 10 uM
Method: Compounds 1 and compound 28 were evaluated in a CellTiter-Glo (CTG) Luminescence cell viability assay in BJAB Burkitt lymphoma cells that are known to be sensitive to eIF4A inhibition. This assay quantitates the number of living, metabolically active cells by measuring their ATP levels.
Cell viability assay. BJAB lymphoma cells were plated in quadruplicate at 5,000 cells/well in serial dilutions of drug ranging two logs with the top concentration of compounds tested at 10 uM. Viability was measured after 72 h using Cell Titer Glo (Promega G7573) following the manufacturer's protocol. Luminescence was detected on the BioTek HT Synergy plate reader and values were normalized to vehicle-treated (DMSO) wells. Silvestrol was included as a positive control (not shown).

eIF4A [2] = target: T1, eIF4A (Homo sapiens, UniProt P60842); experiment: Helicase (duplex unwinding) assay; assay type: biochemical; parameters: 6xHis with TEV protease site (N, cleaved yes); made in house; host or cells: E. coli BL21-CodonPlus; details: Cy3-RNA/DNA duplex, 2.5 μM eIF4A, 2 mM ATP
Method: A functional duplex unwinding assay with a duplex nucleic acid substrate was utilized to test if compound 1 and compound 28 could inhibit eIF4A helicase activity. This unwinding assay features a Cy3-labeled RNA strand annealed to a DNA strand with a long overhang that eIF4A can bind (FIG. 9, top right). When ATP is added to protein and substrate, eIF4A unwinds the duplex, leaving an unlabeled DNA strand and a Cy3-labeled single stranded RNA. When visualized on a native gel, the larger intact fluorescent duplex substrate will run higher on the gel than the smaller unwound single-stranded fluorescent RNA. The ratio of these two Cy3 signals can be used to determine the helicase activity of eIF4A in each condition.
Dose responses of compound 1 and compound 28 were conducted using this assay. […] The intensity of each band in each gel lane was quantified by densitometry to obtain IC50 values for compound 1 and compound 28 in this assay. […]
Helicase assay. […] All products were analyzed by electrophoresis on 20% native polyacrylamide (37.5:1 acrylamide:bisacrylamide) gels. Gels were run at 4° C. for 2 hours and Cy3 signal was detected on an Azure 600 Fluorescent Imaging System (Azure Biosystems) at 524 nm:572 nm (Ex:Em). Cy3 signal was quantified by gel band densitometry performed using ImageJ32 (NIH). IC50 values were calculated using GraphPad Prism v6.0.

eIF4A [3] = target: T1, eIF4A; experiment: FAM-RNA fluorescence polarization assay; assay type: binding; parameters: 6xHis with TEV protease site (N, cleaved yes); made in house; host or cells: E. coli BL21-CodonPlus; details: FAM-A(CAA)5 RNA; for IC50: 2 μM eIF4A, read-out: IC50, FAM-RNA FP assay
Method: Next, an FP assay was performed with a fluorescent, eIF4A-binding RNA oligo (FAM-A(CAA)5) as the fluorophore. […] This same assay was used to investigate if changing the identity of the RNA fluorophore affected the ability of compound 28 to compete the RNA off eIF4A. […] This is evidence that compound 28 inhibits the RNA-eIF4A interaction by binding eIF4A and not the RNA.
FAM-RNA fluorescence polarization assay. Oligos were purchased from Integrated DNA Technologies using RNase free preparations. Recombinant eIF4A (2 μM) was incubated with 25 nM FAM-labelled RNA for 30 min in FP Buffer (15 mM HEPES-NaOH (pH 8), 100 mM NaCl, 1 mM MgCl2, 15% glycerol, 2 mM DTT, 2 mM AMPPNP) at 22° C. in low-volume black 384 well plates (Greiner). eIF4A was incubated with compound for 20 min prior to the addition of FAM-RNA. Plate was incubated for another 30 min before fluorescence polarization was read at 485:535 nm (Ex:Em) on a SpectraMax iD5 plate reader (Molecular Devices. IC50 values were calculated using GraphPad Prism v6.0.

T1 sequence (P60842 whole entry): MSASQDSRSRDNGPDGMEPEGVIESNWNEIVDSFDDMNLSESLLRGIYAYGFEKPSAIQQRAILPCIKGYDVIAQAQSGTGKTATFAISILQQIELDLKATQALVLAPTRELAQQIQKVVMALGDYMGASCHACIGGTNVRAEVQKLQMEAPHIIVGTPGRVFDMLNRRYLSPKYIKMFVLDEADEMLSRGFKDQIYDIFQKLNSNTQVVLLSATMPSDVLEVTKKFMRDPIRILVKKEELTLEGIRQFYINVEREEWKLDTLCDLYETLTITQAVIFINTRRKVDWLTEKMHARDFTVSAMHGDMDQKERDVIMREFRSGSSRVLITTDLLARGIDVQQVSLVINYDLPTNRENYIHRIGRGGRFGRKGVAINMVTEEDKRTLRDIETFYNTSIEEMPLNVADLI

| EC50 ([1]; Homo sapiens, CellTiter-Glo, n=4) [µM] | SMILES | effect on BJAB cell viability [1] | inhibition of eIF4A duplex unwinding (eIF4A [2]) | competition of fluorescent RNA off eIF4A (eIF4A [3]) | IC50 (eIF4A [3]) [µM] |
| --- | --- | --- | --- | --- | --- |
| 2.13 ± 0.17 | CCCCc1ccc(-c2ccc(-c3cc(C(=O)O)c4cc(Br)ccc4n3)o2)cc1 [Compound 1, 6-bromo-2-(5-(4-butylphenyl)furan-2-yl)quinoline-4-carboxylic acid] | decrease BJAB cell viability | inhibit eIF4A duplex unwinding | able to compete the fluorescent RNA off of eIF4A | 161 ± 9.8 |
|  | CCCCc1ccc(-c2ccc(-c3cc(C(=O)O)c4cc([N+](=O)[O-])ccc4n3)o2)cc1 [Compound 28, 2-(5-(4-butylphenyl)furan-2-yl)-6-nitroquinoline-4-carboxylic acid] | three to four times more potent than 1; also recorded: decrease BJAB cell viability | about four-fold more potent than compound 1; also recorded: inhibit eIF4A duplex unwinding | able to compete the fluorescent RNA off of eIF4A; also recorded: about three-fold more potent than 1 | 58.3 ± 2.5 |
